# From patent US20030129629A1, “Methods and compositions for the identification, assessment, prevention, and therapy of human cancers” (Millennium Pharmaceuticals, Inc., priority 2000, published 2003)
# Values joined by “and” are separate entries in the source; they are usually repeats but may differ in a detail not shown here. Equal values may be shown once. Read-outs that look alike come from different tables or passages of the source.
# Test system: 60 cancer cell lines (NCI 60 cancer cell line series)
# Test: NCI-DTP in vitro cancer screen, sulforhodamine B (SRB) growth inhibition, 48 hour exposure
# Assay type: cell-based, human
# Procedure: Cancer Cell Line Preparation. Sixty cancer cell lines were obtained from the National Cancer Institute Developmental Therapeutics Program (NCI-DTP). Procedures for growing cells and testing compounds have been described previously (Scudiero et al., Cancer Res. 1988, 48:4827-4833; Stinson et al., Anticancer Res.; Myers et al., Electrophoresis 1997, 18:647-653). Cells are plated on day 0 at a density individualized for each cell line so that they will generally be sub-confluent at the end of the assay period. On day 1, a compound is added in the format for a duplicate-well, 5-dose, ten-fold interval dose response study.
# No-drug, no-cell and no-growth controls are included. On day 3 the cells are processed for staining with sulforhodamine B (SRB), which reflects the amount of cell mass present at the end of a 48 hour exposure to the test agent. From dose response curves based on the SRB data, various parameters can be determined. […] More precisely, the quantity used in the calculation to be described is the potency measure −log{GI50}.
# Activity database (A). […] This subset of compounds was selected from the larger 23,000 compound database available from the DTP. The compounds were selected on the basis of their known mechanism of action and chemical structure. The average potency −log{GI50} was extracted from the comma-delimited text files available through the Web at http://www.nci.nih.gov/intra/lmp/jnwbio.html. Subsequently, these −log{GI50} values were inspected manually and classified as indicating either Low, Medium or High sensitivity to each compound.
smiles,measurement,setting,value
O=C(O)CCCc1ccc(N(CCCl)CCCl)cc1 [Chlorambucil],"classification of cell line as Low(1), Medium(2), High(3) sensitivity to compound",,2 and 3 and 1
same,"classification of cell line as Low(1), Medium(2), High(3) sensitivity to compound",Breast BT-549 CL5013,1
same,"classification of cell line as Low(1), Medium(2), High(3) sensitivity to compound",Breast HS-578T CL5006,1
same,"classification of cell line as Low(1), Medium(2), High(3) sensitivity to compound",Breast MCF7(I) CL5001,2
same,"classification of cell line as Low(1), Medium(2), High(3) sensitivity to compound",Breast MCF7/ADRr CL5002,2
same,"classification of cell line as Low(1), Medium(2), High(3) sensitivity to compound",Breast MDA-MB-231 CL5005,1
same,"classification of cell line as Low(1), Medium(2), High(3) sensitivity to compound",Breast MDA-MB-435 CL5011,1
same,"classification of cell line as Low(1), Medium(2), High(3) sensitivity to compound",Breast MDA-N CL5012,1
same,"classification of cell line as Low(1), Medium(2), High(3) sensitivity to compound",Breast T-47D CL5014,2
same,"classification of cell line as Low(1), Medium(2), High(3) sensitivity to compound",Colon COLO-250 CL4010,1
same,"classification of cell line as Low(1), Medium(2), High(3) sensitivity to compound",Colon HCC-2998 CL4002,1
same,"classification of cell line as Low(1), Medium(2), High(3) sensitivity to compound",Colon HCT-15 CL4015,2
same,"classification of cell line as Low(1), Medium(2), High(3) sensitivity to compound",Colon HCT-116 CL4003,1
same,"classification of cell line as Low(1), Medium(2), High(3) sensitivity to compound",Colon HT29(I) CL4001,1
same,"classification of cell line as Low(1), Medium(2), High(3) sensitivity to compound",Colon KM12 CL4017,1
same,"classification of cell line as Low(1), Medium(2), High(3) sensitivity to compound",Colon SW-620 CL4009,2
same,"classification of cell line as Low(1), Medium(2), High(3) sensitivity to compound",Leukemia CCRF-CEM(I) CL7003,3
same,"classification of cell line as Low(1), Medium(2), High(3) sensitivity to compound",Leukemia HL-60(I) CL7008,3
same,"classification of cell line as Low(1), Medium(2), High(3) sensitivity to compound",Leukemia K562(I) CL7005,1
same,"classification of cell line as Low(1), Medium(2), High(3) sensitivity to compound",Leukemia MOLT-4 CL7006,3
same,"classification of cell line as Low(1), Medium(2), High(3) sensitivity to compound",Leukemia RPMI-8226(I) CL7010,2
same,"classification of cell line as Low(1), Medium(2), High(3) sensitivity to compound",Leukemia SR CL7019,3
same,"classification of cell line as Low(1), Medium(2), High(3) sensitivity to compound",Melanoma LOX IMVI CL10001,2
same,"classification of cell line as Low(1), Medium(2), High(3) sensitivity to compound",Melanoma M14 CL10014,2
same,"classification of cell line as Low(1), Medium(2), High(3) sensitivity to compound",Melanoma MALME-3M CL10002,2
same,"classification of cell line as Low(1), Medium(2), High(3) sensitivity to compound",Melanoma SK-MEL-2 CL10005,1
same,"classification of cell line as Low(1), Medium(2), High(3) sensitivity to compound",Melanoma SK-MEL-5 CL10007,2
same,"classification of cell line as Low(1), Medium(2), High(3) sensitivity to compound",Melanoma SK-MEL-28 CL10008,1
same,"classification of cell line as Low(1), Medium(2), High(3) sensitivity to compound",Melanoma UACC-62 CL10020,3
same,"classification of cell line as Low(1), Medium(2), High(3) sensitivity to compound",Melanoma UACC-257 CL10021,2
same,"classification of cell line as Low(1), Medium(2), High(3) sensitivity to compound",NSCLC A549/ATCC CL1004,2
same,"classification of cell line as Low(1), Medium(2), High(3) sensitivity to compound",NSCLC EKVX CL1008,1
same,"classification of cell line as Low(1), Medium(2), High(3) sensitivity to compound",NSCLC HOP-62 CL1026,2
same,"classification of cell line as Low(1), Medium(2), High(3) sensitivity to compound",NSCLC HOP-92 CL1029,2
same,sensitivity classification Low(1)/Medium(2)/High(3),NSCLC NCI-H23(I) CL1001,2
same,"classification of cell line as Low(1), Medium(2), High(3) sensitivity to compound",NSCLC NCI-H226 CL1013,2
same,sensitivity classification Low(1)/Medium(2)/High(3),NSCLC NCI-H332M CL1017,1
same,sensitivity classification Low(1)/Medium(2)/High(3),NSCLC NCI-H460 CL1021,3
same,sensitivity classification Low(1)/Medium(2)/High(3),NSCLC NCI-H522 CL1003,2
same,sensitivity classification Low(1)/Medium(2)/High(3),Ovarian IGROV1 CL6010,1
same,sensitivity classification Low(1)/Medium(2)/High(3),Ovarian OVCAR-3 CL6001,1
same,sensitivity classification Low(1)/Medium(2)/High(3),Ovarian OVCAR-4 CL6002,1
same,sensitivity classification Low(1)/Medium(2)/High(3),Ovarian OVCAR-5 CL6003,1
same,sensitivity classification Low(1)/Medium(2)/High(3),Ovarian OVCAR-8 CL6005,2
same,sensitivity classification Low(1)/Medium(2)/High(3),Ovarian SK-OV-3 CL6011,1
same,sensitivity classification Low(1)/Medium(2)/High(3),Prostate DU-145 CL11003,2
same,sensitivity classification Low(1)/Medium(2)/High(3),Prostate PC-3(I) CL11001,1
same,sensitivity classification Low(1)/Medium(2)/High(3),Renal 786-0 CL9018,2
same,sensitivity classification Low(1)/Medium(2)/High(3),Renal A498 CL9013,1
same,sensitivity classification Low(1)/Medium(2)/High(3),Renal ACHN CL9023,3
same,sensitivity classification Low(1)/Medium(2)/High(3),Renal CAKI-1 CL9015,3
same,sensitivity classification Low(1)/Medium(2)/High(3),Renal RXF-393 CL9016,2
same,sensitivity classification Low(1)/Medium(2)/High(3),Renal SN12C CL9008,2
same,sensitivity classification Low(1)/Medium(2)/High(3),Renal TK10 CL9024,1
same,sensitivity classification Low(1)/Medium(2)/High(3),Renal UO-31 CL9004,2
